Several values for one entry are separate records, joined by “and”; a condition that tells them apart may be missing. Equal values may be shown once. Read-outs that look alike come from different tables or passages of the source.
Assays:
Format in all cases: biochemical
[1] = target: T1, Sirt1 (Homo sapiens, UniProt Q96EB6); assay: Fluorescence-based ZMAL deacetylase activity assay, Sirt1
T1 construct: Expression and purification of Sirt1_133−747, Sirt2_56−356, and Sirt3_118−395 was carried out as described previously; made in house
T1 sequence (Q96EB6 133-747): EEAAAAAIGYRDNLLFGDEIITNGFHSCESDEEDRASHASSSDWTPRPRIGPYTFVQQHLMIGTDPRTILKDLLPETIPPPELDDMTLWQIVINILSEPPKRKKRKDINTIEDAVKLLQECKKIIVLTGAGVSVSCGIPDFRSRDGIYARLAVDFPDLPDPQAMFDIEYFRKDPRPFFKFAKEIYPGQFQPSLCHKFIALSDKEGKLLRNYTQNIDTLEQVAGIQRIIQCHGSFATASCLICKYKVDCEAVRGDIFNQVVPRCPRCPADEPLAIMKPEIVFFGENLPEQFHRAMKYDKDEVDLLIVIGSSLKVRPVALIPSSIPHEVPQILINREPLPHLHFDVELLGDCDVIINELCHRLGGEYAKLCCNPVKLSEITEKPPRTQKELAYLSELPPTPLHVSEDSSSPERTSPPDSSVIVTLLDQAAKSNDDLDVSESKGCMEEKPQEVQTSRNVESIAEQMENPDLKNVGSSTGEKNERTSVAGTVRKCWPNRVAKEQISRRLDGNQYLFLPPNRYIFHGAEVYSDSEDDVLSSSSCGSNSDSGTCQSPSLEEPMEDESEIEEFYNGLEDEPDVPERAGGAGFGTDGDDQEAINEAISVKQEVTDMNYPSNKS
Description: (§1) The effect of the compounds on deacetylase activity of three human sirtuin isotypes (Sirt1–3) was investigated by a homogeneous fluorescence‐based assay, using (Z)‐Lys(acetyl)‐AMC (ZMAL) as substrate. In order to determine the impact of photoisomerization, the respective compounds were irradiated (365 nm, 5 min) in DMSO prior to incubation in the enzyme assay mixture. The results of the irradiated probes were finally compared to non‐irradiated measurements.
(§2) Cloning, expression and purification of recombinant proteins: Expression and purification of Sirt1_133−747, Sirt2_56−356, and Sirt3_118−395 was carried out as described previously.27 Identity and purity were verified by SDS‐PAGE.
(§3) Fluorescence‐based activity assay: The inhibitory effect of compounds on Sirt1–3 was detected via a previously reported fluorescence‐based assay.29 The synthetic substrate (Z)‐Lys(acetyl)‐AMC (ZMAL) is deacetylated by sirtuins, followed by tryptic digestion and thereby release of 7‐aminomethylcoumarin, leading to a fluorescent readout. Inhibition was determined by comparing percentage substrate conversion to a DMSO control after subtraction of the blank fluorescence signal. All compounds were tested at 100 or 50 μM and 10 μM respectively. […] IC50 values were calculated with OriginPro 9.0 G using a non‐linear regression to fit the dose response curve (Figure S6). An enzyme‐free blank control and a 100 % conversion control using AMC instead of ZMAL were measured as well. Inhibition measurements were performed in biological duplicates for all compounds. […]
(§4) Fluorescence-Based Activity Assay (ZMAL-Assay)
(§5) The influence of the synthesized compounds on the deacetylase activity of the class I sirtuins Sirt1–3 was determined in a homogenous fluorescence-based enzyme assay, using the artificial substrate Z-(Ac)Lys-AMC (ZMAL). ZMAL is processed by sirtuins yielding Z-Lys-AMC.
(§6) The latter is subsequently cleaved by tryptic digestion, releasing 7-amino-4-methylcoumarin (AMC), excitation of which leads to a fluorescent read out (λex=390 nm; λem=460 nm). Instead, […]
(§7) contribute to the fluorescence signal. Therefore, the fluorescence intensity is proportional to the activity of the respective sirtuin.
(§8) After subtraction of the blank fluorescence signal (without enzyme) from the signal of the respective probe, the residual signal intensity is related to a 100 % conversion control (AMC), […]
(§9) yielding the percentage substrate conversion. Comparison of the determined substrate conversion with a no-inhibition DMSO control yields the percentage inhibition at the respective […]
(§10) For determination of IC50, inhibitory activity of the respective compound was determined at 8 to 10 distinct concentrations. The measured values were analysed by a non-linear fit to the dose-response curve using a four parameter logistic model (Figure S6):
(§11) Figure S6: Non-linear regression of the dose-response curves of compounds 15c and 15f at the thermal equilibrium (∆, black) and after 5 minutes of 365 nm irradiation (red). […]
A maximal polarization control using just DMSO and a minimal polarization control using 1 µL of the 400 µM solution of 22 instead of inhibitor were performed as well as a blank control containing 1 µL of DMSO in 19 µL assay buffer. The mixture was incubated 10 min at 37 °C […]
(1 picture or pasted object on this page, not shown here)

[2] = target: T2, Sirt2 (Homo sapiens, UniProt Q8IXJ6); assay: Fluorescence-based ZMAL deacetylase activity assay, Sirt2; set-up: key to Sirt2 inhibition Δ (class): n.i.: no inhibition detected (<30 % @ 100 μM); u.i.: unspecific interactions
T2 construct: Expression and purification of Sirt1_133−747, Sirt2_56−356, and Sirt3_118−395 was carried out as described previously; made in house
T2 sequence (Q8IXJ6 56-356): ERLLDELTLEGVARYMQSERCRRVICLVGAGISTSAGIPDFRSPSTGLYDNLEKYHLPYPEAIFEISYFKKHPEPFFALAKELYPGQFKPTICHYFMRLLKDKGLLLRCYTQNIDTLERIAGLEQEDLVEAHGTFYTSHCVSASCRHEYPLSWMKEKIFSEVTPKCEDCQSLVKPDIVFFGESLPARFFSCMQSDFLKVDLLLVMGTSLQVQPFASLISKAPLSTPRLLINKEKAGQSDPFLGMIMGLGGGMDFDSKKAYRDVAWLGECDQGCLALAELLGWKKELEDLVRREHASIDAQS
Description: as §1, §2, §3, §4, §5, §6, §7, §8, §9, §10, §11
(§12) A maximal polarization control using just DMSO and a minimal polarization control using 1 µL of the 400 µM solution of 22 instead of inhibitor were performed as well as a blank control containing 1 µL of DMSO in 19 µL assay buffer. The mixture was incubated 10 min at 37 °C

[3] = target: T3, Sirt3 (Homo sapiens, UniProt Q9NTG7); assay: Fluorescence-based ZMAL deacetylase activity assay, Sirt3; set-up: key to Sirt3 inhibition Δ (class) / Sirt3 inhibition PSS [365 nm] (class): n.i.: no inhibition detected (<30 % @ 100 μM); u.i.: unspecific interactions
T3 construct: Expression and purification of Sirt1_133−747, Sirt2_56−356, and Sirt3_118−395 was carried out as described previously; made in house
T3 sequence (Q9NTG7 118-395): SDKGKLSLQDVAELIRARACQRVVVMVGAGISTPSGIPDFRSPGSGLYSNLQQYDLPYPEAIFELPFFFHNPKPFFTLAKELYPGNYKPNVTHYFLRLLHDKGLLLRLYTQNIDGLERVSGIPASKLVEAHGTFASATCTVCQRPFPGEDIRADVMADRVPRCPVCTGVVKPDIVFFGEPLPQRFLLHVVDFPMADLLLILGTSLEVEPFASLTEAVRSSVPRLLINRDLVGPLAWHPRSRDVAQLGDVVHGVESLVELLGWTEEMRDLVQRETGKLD
Description: as §1, §2, §3, §4, §5, §6, §7, §8, §9, §10, §11, §12

[4] = PSS after 5 min UV irradiation (365 nm), read-out: Sirt1 inhibition PSS [365 nm], percent inhibition
[5] = thermal equilibrium (Δ), read-out: Sirt1 inhibition Δ (class)
[6] = PSS after 5 min UV irradiation (365 nm), read-out: Sirt2 inhibition PSS [365 nm], IC50
[7] = thermal equilibrium (Δ), read-out: Sirt2 inhibition Δ, IC50
[8] = PSS after 5 min UV irradiation (365 nm), read-out: Sirt3 inhibition PSS [365 nm], percent inhibition
[9] = thermal equilibrium (Δ), read-out: Sirt3 inhibition Δ, percent inhibition
[10] = @ 100 μM, PSS after 5 min UV irradiation (365 nm), read-out: Sirt1 inhibition PSS [365 nm], percent inhibition
[11] = @ 100 μM, thermal equilibrium (Δ), read-out: Sirt1 inhibition Δ, percent inhibition
[12] = PSS 365 nm versus thermal equilibrium
[13] = PSS after 5 min UV irradiation (365 nm), read-out: Sirt3 inhibition PSS [365 nm], IC50
[14] = thermal equilibrium (Δ), read-out: Sirt3 inhibition Δ, IC50
[15] = PSS after 5 min UV irradiation (365 nm), read-out: Sirt1 inhibition PSS [365 nm] (class)

| Compound | inhibition at 100 µM [1, 5] [%] | IC50 [2, 6] [µM] | IC50 [2, 7] | inhibition at 10 µM [3, 8] [%] | inhibition at 10 µM [3, 9] [%] | inhibition at 100 µM [1, 10] [%] | decrease of Sirt2 inhibition upon 365 nm irradiation (factor) [2, 12] | inhibition at 100 µM [1, 15] [%] | other results |
| --- | --- | --- | --- | --- | --- | --- | --- | --- | --- |
| CC(C)(C)OC(=O)c1ccc(/N=N/c2cncc(C(N)=O)c2)cc1 [15 a] | < 30 | 6.8 ± 0.4 | 6 ± 1.1 µM | 45 | 42 | – | – | – | inhibition at 10 µM [1, 4]: 7% |
| CC(C)(C)OC(=O)Cc1ccc(/N=N/c2cncc(C(N)=O)c2)cc1 [15 b] | – | 6.9 ± 0.6 | 3.9 ± 0.2 µM | 30 | 58 | 44 | – | – | inhibition at 100 µM [1, 11]: 35% |
| CC(C)(C)OC(=O)NCc1ccc(/N=N/c2cncc(C(N)=O)c2)cc1 [15 c] | < 30 | 2.8 ± 0.1 | 0.9 µM and 0.88 µM | – | – | – | three | – | inhibition at 10 µM [1, 4]: 6%; decrease of Sirt3 inhibition upon 365 nm irradiation (factor) [3, 12]: fourfold; IC50 [3, 13]: 4 ± 0.7 µM; IC50 [3, 14]: 1.1 ± 0.2 µM |
| NC(=O)c1cncc(/N=N/c2ccc(Br)cc2)c1 [15 d] | < 30 | 8.4 ± 0.9 | 7.5 ± 0.5 µM | – | – | 47 | – | – | IC50 [3, 13]: 13 ± 2.2 µM; IC50 [3, 14]: 8.2 ± 1.4 µM |
| CCCCNC(=O)c1ccc(/N=N/c2cncc(C(N)=O)c2)cc1 [15 e] | < 30 | – | – | 49 | 54 | – | – | – | inhibition at 10 µM [1, 4]: 10%; inhibition at 10 µM ([2]; PSS after 5 min UV irradiation (365 nm), read-out: Sirt2 inhibition PSS [365 nm], percent inhibition (converted)): 61%; inhibition at 10 µM ([2]; thermal equilibrium (Δ), read-out: Sirt2 inhibition Δ, percent inhibition (converted)): 51% |
| CCCCCCCCCC(=O)NCc1ccc(/N=N/c2cncc(C(N)=O)c2)cc1 [15 f] | < 30 | 1.6 ± 0.2 | 37 µM and 36.6 µM | – | – | – | – | < 30 | increase of Sirt2 inhibition upon 365 nm irradiation (factor) [2, 12]: 23 fold; Sirt3 inhibition PSS [365 nm] (class) ([3]; PSS after 5 min UV irradiation (365 nm)): n.i. (n.i.: no inhibition detected (<30 % @ 100 μM)); Sirt3 inhibition Δ (class) ([3]; thermal equilibrium (Δ)): n.i. (n.i.: no inhibition detected (<30 % @ 100 μM)) |

Second part, led by results:

| inhibition at 100 µM [1, 5] [%] | IC50 [2, 6] [µM] | IC50 [2, 7] | inhibition at 10 µM [3, 8] [%] | inhibition at 10 µM [3, 9] [%] | inhibition at 100 µM [1, 10] [%] | decrease of Sirt2 inhibition upon 365 nm irradiation (factor) [2, 12] | inhibition at 100 µM [1, 15] [%] | Compound | other results |
| --- | --- | --- | --- | --- | --- | --- | --- | --- | --- |
| – | 11.8 ± 1 | 7.2 ± 0.5 µM | 22 | 64 | 54 | 1.6 fold | – | NC(=O)c1cncc(/N=N/c2ccc(C#CCCCCO)cc2)c1 [15 g] | inhibition at 100 µM [1, 11]: 60% |
| < 30 | 37.5 ± 5.2 | 15.2 ± 1.8 µM | 18 | 42 | – | 2.5 fold | < 30 | CC(C)(O)C#Cc1ccc(/N=N/c2cncc(C(N)=O)c2)cc1 [15 h] | – |
| < 30 | 1.6 ± 0.2 | 0.7 ± 0.21 µM | 24 | 23 | – | twofold | < 30 | NC(=O)c1cncc(OCc2cccc(/N=N/c3ccc(OCc4ccccc4)cc3)c2)c1 [20 a] | – |
| < 30 | 6.4 ± 0.5 | 3.2 ± 0.5 µM | 47 | 34 | – | twofold | < 30 | NC(=O)c1cncc(OCc2cccc(/N=N/c3ccc(F)cc3)c2)c1 [20 b] | – |
| – | 6.2 ± 0.54 | – | – | – | 62 | – | – | C#Cc1ccc(/N=N/c2cccc(COc3cncc(C(N)=O)c3)c2)cc1 [20 c] | inhibition at 100 µM [1, 11]: 45%; Sirt2 inhibition Δ (class) ([2]; thermal equilibrium (Δ)): u.i.; IC50 [3, 13]: 17.2 ± 1.57 µM; Sirt3 inhibition Δ (class) ([3]; thermal equilibrium (Δ)): u.i. |

— article PMC7496931, “Activation of Sirtuin 2 Inhibitors Employing Photoswitchable Geometry and Aqueous Solubility” (Chemmedchem, 2020)
